Several values for one entry are separate records, joined by “and”; a condition that tells them apart may be missing. Equal entries are not always repeated.
Tested on: BDF1 mice, Adenocarcinoma 755 s.c., tumor weight T/C
Test: NCI In Vivo Anticancer Drug Screen. Data for tumor model Adenocarcinoma 755 (subcutaneous) in B6D2F1 (BDF1) mice
Settings: endpoint: mean tumor weight, higher = larger tumour
Procedure, shortened: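 In vivo antitumor screen on a transplantable tumor line. Result equals the measure in compound-treated animals divided by the same measure in vehicle controls.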

[1] = dose: 30.0 mg/kg/injection, schedule: Q01DX011 (ip), vehicle: saline
[2] = dose: 75.0 mg/kg/injection, schedule: Q01DX011 (ip), vehicle: carboxymethylcellulose (CMC)
[3] = dose: 300.0 mg/kg/injection, schedule: Q01DX011 (ip), vehicle: carboxymethylcellulose (CMC)
[4] = dose: 25.0 mg/kg/injection, schedule: Q01DX011 (ip), vehicle: carboxymethylcellulose (CMC)
[5] = dose: 30.0 mg/kg/injection, schedule: Q01DX011 (ip), vehicle: carboxymethylcellulose (CMC)
[6] = dose: 60.0 mg/kg/injection, schedule: Q01DX011 (ip), vehicle: carboxymethylcellulose (CMC)
[7] = dose: 75.0 mg/kg/injection, schedule: Q01DX011 (ip), vehicle: methylcellulose (MC)
[8] = dose: 50.0 mg/kg/injection, schedule: Q01DX011 (ip), vehicle: carboxymethylcellulose (CMC)
[9] = dose: 120.0 mg/kg/injection, schedule: Q01DX011 (ip), vehicle: carboxymethylcellulose (CMC)
[10] = dose: 240.0 mg/kg/injection, schedule: Q01DX011 (ip), vehicle: carboxymethylcellulose (CMC)

Question: `c1nc(SC2=NCCN2)c2[nH]cnc2n1` was tested. Which T/C (dose: 0.22 mg/kg/injection, schedule: Q01DX011 (ip), vehicle: saline) did it give?
Answer: 104 % of control

Question: And the T/C (dose: 0.45 mg/kg/injection, schedule: Q01DX011 (ip), vehicle: saline)?
Answer: 72 % of control

Question: What about the T/C (dose: 0.45 mg/kg/injection, schedule: Q01DX011 (oral), vehicle: saline) of the same molecule?
Answer: 100 % of control

Question: And the T/C (dose: 0.65 mg/kg/injection, schedule: Q01DX011 (ip), vehicle: saline)?
Answer: 71 % of control

Question: And the T/C (dose: 0.9 mg/kg/injection, schedule: Q01DX011 (ip), vehicle: saline)?
Answer: 61 % of control

Question: What about the T/C (dose: 0.9 mg/kg/injection, schedule: Q01DX011 (oral), vehicle: saline) of the same molecule?
Answer: 73 % of control

Question: And the T/C (dose: 1.3 mg/kg/injection, schedule: Q01DX011 (ip), vehicle: saline)?
Answer: 74 % of control

Question: And the T/C (dose: 1.8 mg/kg/injection, schedule: Q01DX011 (ip), vehicle: saline)?
Answer: 15 % of control

Question: And the T/C (dose: 1.8 mg/kg/injection, schedule: Q01DX011 (oral), vehicle: saline)?
Answer: 48 % of control

Question: And the T/C (dose: 2.6 mg/kg/injection, schedule: Q01DX011 (ip), vehicle: saline)?
Answer: 23 % of control

Question: What about the T/C (dose: 2.62 mg/kg/injection, schedule: Q01DX011 (ip), vehicle: saline) of the same molecule?
Answer: 4 % of control and 8 % of control

Question: What about the T/C (dose: 3.6 mg/kg/injection, schedule: Q01DX011 (oral), vehicle: saline) of the same molecule?
Answer: 21 % of control

Question: What about the T/C (dose: 5.25 mg/kg/injection, schedule: Q01DX011 (ip), vehicle: saline) of the same molecule?
Answer: 2 % of control and 3 % of control

Question: What about the T/C (dose: 5.25 mg/kg/injection, schedule: Q01DX011 (oral), vehicle: saline) of the same molecule?
Answer: 9 % of control

Question: What about the T/C (dose: 8.0 mg/kg/injection, schedule: Q01DX001 (ip), vehicle: saline) of the same molecule?
Answer: 38 % of control

Question: What about the T/C (dose: 10.5 mg/kg/injection, schedule: Q01DX011 (ip), vehicle: saline) of the same molecule?
Answer: 1 % of control and 2 % of control

Question: What about the T/C (dose: 10.5 mg/kg/injection, schedule: Q01DX011 (oral), vehicle: saline) of the same molecule?
Answer: 2 % of control

Question: What about the T/C (dose: 16.0 mg/kg/injection, schedule: Q01DX001 (ip), vehicle: saline) of the same molecule?
Answer: 57 % of control

Question: What about the T/C (dose: 20.0 mg/kg/injection, schedule: Q01DX011 (ip), vehicle: saline) of the same molecule?
Answer: 31 % of control

Question: And the T/C (dose: 21.0 mg/kg/injection, schedule: Q01DX011 (ip), vehicle: saline)?
Answer: 2 % of control

Question: And the T/C (dose: 21.0 mg/kg/injection, schedule: Q01DX011 (oral), vehicle: saline)?
Answer: 1 % of control

Question: What about the T/C [1] of the same molecule?
Answer: 14 % of control

Question: And the T/C (dose: 31.0 mg/kg/injection, schedule: Q01DX001 (ip), vehicle: saline)?
Answer: 29 % of control

Question: And the T/C (dose: 62.0 mg/kg/injection, schedule: Q01DX001 (ip), vehicle: saline)?
Answer: 38 % of control

Question: With `S=P(Oc1ccccc1)(N1CC1)N1CC1` as the molecule, how does the T/C (dose: 55.0 mg/kg/injection, schedule: Q01DX011 (ip), vehicle: methylcellulose (MC)) read?
Answer: 22 % of control and 42 % of control and 44 % of control

Question: What about the T/C (dose: 220.0 mg/kg/injection, schedule: Q01DX011 (ip), vehicle: methylcellulose (MC)) of the same molecule?
Answer: 20 % of control

Question: `CC(=O)Nc1nc(SCc2ccccc2)c2[nH]cnc2n1` was tested. Which T/C (dose: 12.5 mg/kg/injection, schedule: Q01DX011 (ip), vehicle: methylcellulose (MC)) did it give?
Answer: 8 % of control

Question: `O=C(O)Cc1ccc(C2CCCCC2)cc1` was tested. Which T/C (dose: 37.5 mg/kg/injection, schedule: Q01DX011 (ip), vehicle: carboxymethylcellulose (CMC)) did it give?
Answer: 164 % of control

Question: And the T/C [2]?
Answer: 81 % of control

Question: What about the T/C (dose: 150.0 mg/kg/injection, schedule: Q01DX011 (ip), vehicle: carboxymethylcellulose (CMC)) of the same molecule?
Answer: 120 % of control

Question: What about the T/C [3] of the same molecule?
Answer: 53 % of control

Question: Which T/C (dose: 75.0 mg/kg/injection, schedule: Q01DX011 (sc), vehicle: steriod suspending solution) does the source give for `C[C@]12CCC(=O)C=C1CC[C@H]1[C@@H]3CC[C@@]4(OCC4=O)[C@@]3(C)C[C@H](O)[C@@]12F` here?
Answer: 13 % of control

Question: And the T/C (dose: 150.0 mg/kg/injection, schedule: Q01DX011 (sc), vehicle: steriod suspending solution)?
Answer: 11 % of control

Question: How did the T/C [4] turn out when `NS(=O)(=O)c1nc(Cl)c2[nH]cnc2n1` was run?
Answer: 116 % of control

Question: And the T/C [2]?
Answer: 73 % of control

Question: And the T/C (dose: 225.0 mg/kg/injection, schedule: Q01DX011 (ip), vehicle: carboxymethylcellulose (CMC))?
Answer: 69 % of control

Question: How did the T/C [5] turn out when `CSc1ncn(C)c2ncnc1-2` was run?
Answer: 58 % of control

Question: And the T/C [6]?
Answer: 71 % of control

Question: Which results are given for `CN(C)N=Nc1ccc(C(=O)NN)cc1`?
Answer: T/C [2]: 31 % of control; T/C (dose: 100.0 mg/kg/injection, schedule: Q01DX011 (ip), vehicle: carboxymethylcellulose (CMC)): 15 % of control

Question: How did the T/C [1] turn out when `N#[N+]c1cn(C2CC(O)C(CO)O2)c(=O)[nH]c1=O` (configuration not stated) was run?
Answer: 106 % of control

Question: What about the T/C (dose: 60.0 mg/kg/injection, schedule: Q01DX011 (ip), vehicle: saline) of the same molecule?
Answer: 118 % of control

Question: What about the T/C (dose: 120.0 mg/kg/injection, schedule: Q01DX011 (ip), vehicle: saline) of the same molecule?
Answer: 94 % of control

Question: What about the T/C (dose: 240.0 mg/kg/injection, schedule: Q01DX011 (ip), vehicle: saline) of the same molecule?
Answer: 47 % of control

Question: Which T/C (dose: 18.75 mg/kg/injection, schedule: Q01DX011 (ip), vehicle: methylcellulose (MC)) does the source give for `Nc1nc(SCc2ccc([N+](=O)[O-])cc2)c2ncn(C3OC(CO)C(O)C3O)c2n1` (configuration not stated) here?
Answer: 23 % of control

Question: What about the T/C (dose: 37.5 mg/kg/injection, schedule: Q01DX011 (ip), vehicle: methylcellulose (MC)) of the same molecule?
Answer: 20 % of control

Question: And the T/C [7]?
Answer: 8 % of control

Question: For `CCC(C)Sc1nc(N)nc2c1ncn2C1OC(CO)C(O)C1O` (configuration not stated), which T/C (dose: 200.0 mg/kg/injection, schedule: Q01DX011 (ip), vehicle: carboxymethylcellulose (CMC)) is on record?
Answer: 2 % of control

Question: What about the T/C [3] of the same molecule?
Answer: 2 % of control

Question: Which T/C [7] does the source give for `CC(C)Cn1cnc2c(SCCc3ccccc3)nc(N)nc21` here?
Answer: 52 % of control

Question: And the T/C (dose: 150.0 mg/kg/injection, schedule: Q01DX011 (ip), vehicle: methylcellulose (MC))?
Answer: 34 % of control

Question: And the T/C (dose: 300.0 mg/kg/injection, schedule: Q01DX011 (ip), vehicle: methylcellulose (MC))?
Answer: 3 % of control

Question: For `Cc1cnc2nc(N)nc(N)c2n1`, which T/C [8] is on record?
Answer: 67 % of control

Question: What about the T/C [2] of the same molecule?
Answer: 33 % of control

Question: What does the source list for `O=c1cc2[nH]c(O)cn2c(=O)[nH]1`?
Answer: T/C [5]: 95 % of control and 73 % of control; T/C [9]: 47 % of control; T/C [10]: 64 % of control

Question: For `CN(C)N=Nc1ccc(CCCC(=O)NN)cc1`, which T/C (dose: 31.0 mg/kg/injection, schedule: Q01DX011 (ip), vehicle: carboxymethylcellulose (CMC)) is on record?
Answer: 60 % of control

Question: What about the T/C (dose: 62.0 mg/kg/injection, schedule: Q01DX011 (ip), vehicle: carboxymethylcellulose (CMC)) of the same molecule?
Answer: 10 % of control

Question: `Nc1nc(N)c(N=O)c(Nc2ccc(Cl)c(Cl)c2)n1` was tested. Which T/C (dose: 1.75 mg/kg/injection, schedule: Q01DX011 (ip), vehicle: methylcellulose (MC)) did it give?
Answer: 90 % of control

Question: And the T/C (dose: 3.0 mg/kg/injection, schedule: Q01DX011 (ip), vehicle: carboxymethylcellulose (CMC))?
Answer: 76 % of control

Question: What about the T/C (dose: 3.5 mg/kg/injection, schedule: Q01DX011 (ip), vehicle: methylcellulose (MC)) of the same molecule?
Answer: 77 % of control

Question: What about the T/C (dose: 4.0 mg/kg/injection, schedule: Q01DX011 (ip), vehicle: methylcellulose (MC)) of the same molecule?
Answer: 61 % of control

Question: What about the T/C (dose: 6.0 mg/kg/injection, schedule: Q01DX011 (ip), vehicle: methylcellulose (MC)) of the same molecule?
Answer: 50 % of control

Question: And the T/C (dose: 7.0 mg/kg/injection, schedule: Q01DX011 (ip), vehicle: carboxymethylcellulose (CMC))?
Answer: 57 % of control

Question: What about the T/C (dose: 7.0 mg/kg/injection, schedule: Q01DX011 (ip), vehicle: methylcellulose (MC)) of the same molecule?
Answer: 48 % of control

Question: And the T/C (dose: 14.0 mg/kg/injection, schedule: Q01DX011 (ip), vehicle: carboxymethylcellulose (CMC))?
Answer: 45 % of control and 50 % of control

Question: And the T/C (dose: 14.0 mg/kg/injection, schedule: Q01DX011 (ip), vehicle: methylcellulose (MC))?
Answer: 25 % of control and 44 % of control

Question: What about the T/C (dose: 28.0 mg/kg/injection, schedule: Q01DX011 (ip), vehicle: methylcellulose (MC)) of the same molecule?
Answer: 21 % of control

Question: What about the T/C (dose: 57.0 mg/kg/injection, schedule: Q01DX011 (ip), vehicle: carboxymethylcellulose (CMC)) of the same molecule?
Answer: 66 % of control

Question: What about the T/C (dose: 57.0 mg/kg/injection, schedule: Q01DX011 (ip), vehicle: methylcellulose (MC)) of the same molecule?
Answer: 18 % of control

Question: And the T/C (dose: 114.0 mg/kg/injection, schedule: Q01DX011 (ip), vehicle: carboxymethylcellulose (CMC))?
Answer: 63 % of control

Question: And the T/C (dose: 228.0 mg/kg/injection, schedule: Q01DX011 (ip), vehicle: carboxymethylcellulose (CMC))?
Answer: 8 % of control

Question: With `CCCCOC(=O)C1(N)CCCC1` as the molecule, how does the T/C (dose: 3.12 mg/kg/injection, schedule: Q01DX011 (ip), vehicle: carboxymethylcellulose (CMC)) read?
Answer: 75 % of control

Question: What about the T/C (dose: 6.25 mg/kg/injection, schedule: Q01DX011 (ip), vehicle: carboxymethylcellulose (CMC)) of the same molecule?
Answer: 80 % of control

Question: What about the T/C (dose: 12.5 mg/kg/injection, schedule: Q01DX011 (ip), vehicle: carboxymethylcellulose (CMC)) of the same molecule?
Answer: 66 % of control

Question: What about the T/C [4] of the same molecule?
Answer: 29 % of control and 35 % of control

Question: What about the T/C [8] of the same molecule?
Answer: 12 % of control

Question: `O=C(Nc1ccc(N=Nc2ccc(O)c(C(=O)O)c2)cc1)c1ccc(C(=O)Nc2ccc(N=Nc3ccc(O)c(C(=O)O)c3)cc2)cc1` was tested. Which T/C [5] did it give?
Answer: 92 % of control

Question: And the T/C [6]?
Answer: 75 % of control

Question: What about the T/C [9] of the same molecule?
Answer: 102 % of control

Question: What about the T/C [10] of the same molecule?
Answer: 98 % of control
